Laboratory results taken from patent US20100092456A1, “METHODS OF TREATMENT” (priority 2006, published 2010).

Columns and labels:
PIP 5-K [1] = molecular target: T1, PIP 5-K (Mus musculus, UniProt P70181); assay: In vitro activity of recombinant PIP 5-K (radioactive ATP, TLC); format: biochemical; conditions: apoptotic concentrations of H2O2; Cysteine 175 to serine mutant is not sensitive
T1 construct: expressed in transfected cells; host or cells: HeLa cells
Description: (§1) Panel B: Recombinant wild type PIP 5-K and a point mutation of PIP 5-K—(cysteine 175 altered to a serine residue) were both treated with H2O2 and enzyme activity was assayed in vitro by measuring the amount of product that is produced after incubation with substrate and radioactive ATP. The products were then analysed on TLC plate using phosphoimager.
as §1, with “Recombinant” for “Panel B: Recombinant”, “5-K-(cysteine” for “5-K—(cysteine”, “phosphoimager. […] (FIG. 12, panel B).” for “phosphoimager.”

[2] = system: nuclear PtdIns4P and PtdIns5P in differentiated MEL cells; assay: Mass assay of nuclear PtdIns4P and PtdIns5P in differentiated MEL cells; format: cell-based, Murine; conditions: NAC 5 mM or BSO 100 μM for 4 hours, H2O2 500 μM for 15 minutes, vs control-treated cells
Description: B) Differentiated MEL cells were treated with NAC (5 mM) or BSO (100 μM), each for 4 hours, or H2O2 (500 μM) for 15 minutes prior to the isolation of intact nuclei. A mass assay was used to determine the levels of PtdIns4P and PtdIns5P. The results are expressed as % of control-treated differentiated MEL cells and are calculated from 3 independent experiments.
MEL, HEK 293 and HT1080 cells were maintained in routine culture using 10% FCS in DMEM. When required, differentiated MEL cells were prepared by the addition of 1.5% DMSO to the culture medium for a period of 4 days. MEL cells were transfected using Effectene (Qiagen), HEK 293 cells with calcium phosphate and HT1080 with LT1 (Mirus corporation). The following plasmids were used: pEGFP, pCDNA3 (both from Clontech), pCDNA3-Flag-MKK6+ and pCDNA3-Flag-MKK6-(from Dr. M. Schmidt, The Netherlands Cancer Institute), pSuper (from Dr. R. Agami, The Netherlands Cancer Institute), pCDNA3-EGFP-IpgD/IpgE, pCDNA3-EGFP-PIP kinase typeIIβ, and RNAi for type II β PIP kinase (termed pSuper-IIβRNAi). The targeting sequence for the latter was […]. Irradiation of the cells with 254 nm UV-C light (0-200 J/m) or gamma rays (0-40 Gy, from a Cesium 137 source) was performed using 6-well or 10 cm plastic petri dishes with a depth of medium covering the cells not exceeding 3-4 mm. Thereafter, the cells were returned to normal culture conditions for 30 minutes before subcellular fractionation was started. To determine long terms effects of UV and gamma irradiation the cells were returned to normal culture conditions for up to 48 hours.
MEL cells were washed, twice in ice cold PBS before their fractionation using a detergent-free hypotonic buffer. This method yields a mixed cytosol and membrane fraction and intact nuclei after separation using a sucrose cushion. MEL cell nuclei were fractionated into nucleoplasm and the CEF using modifications of a previously published method. Briefly, intact MEL cell nuclei were resuspended in ice cold hypotonic buffer (3 mM EDTA, 0.2 mM EGTA and 1 mM DTT pH 7.85, with protease inhibitors) followed by forced passage (12 times) through a 25 gauge needle. After centrifugation (1700 g) the supernatant (the nucleoplasm) was saved. The pellet (CEF) was washed twice before resuspending by sonication in 10 mM TrisHCl, 10% sucrose, 10 mM MgCl2 pH 7.4, with protease inhibitors. The protein content of all fractions was determined using the Bradford reagent (BioRad). PtdIns4P and PtdIns5P were measured using in vitro mass assays employing recombinant type I and type II PIP kinases, respectively. The product PtdIns(4,5)P2 was separated by TLC. The amount of radioactivity found in PtdIns(4,5)P2 was proportional to the amount of PtdInsP isomer in the neomycin affinity-purified lipid extract.
However, no studies have determined a role for nuclear phosphoinositides or defined downstream protein targets mediating phosphoinositide-stress activated pathways. To study changes in nuclear phosphoinositides in response to cellular stress, we used Murine erythroleukaemia (MEL) cells as a model system because preparations of nuclei from these cells have been proven to be of high purity. To visualise changes in phosphoinositides, various independent methods were used. The mass level of both PtdIns4P and PtdIns5P were measured using an assay that relies on the differential in vitro specificities of type I and type II PIP kinases. […] Gamma irradiation (10 Gy) led to a small (approximately 20%) decrease in the PtdIns4P level but no detectable change in the level of PtdIns5P in whole nuclei (FIG. 1a). To determine if nuclear PtdInsPs were regulated by oxidative stress we treated differentiated MEL cells with H2O2, BSO (L-buthionine[S,R]-sulphoximine, a glutamyl-cysteine synthetase inhibitor, which increases intracellular reactive oxygen species (ROS)) or NAC. (N-acetyl-cysteine, which increases cellular glutathione levels and cell' capability to deal with ROS). […]

[3] = system: PtdIns(4,5)P2 in HeLa cells; assay: PtdIns(4,5)P2 levels visualised with GFP-PH domain of PLCdelta1 probe in HeLa cells; format: cell-based; conditions: 600 microMolar H2O2, no recovery hours after stimulation
Excerpt: Changes in intracellular PtdIns(4,5)P2 levels following stimulation with neurokinin A were visualised in real time using a fusion protein of GFP and the PH domain of PLCdelta1 as a probe. GFP PLC delta 1 is a highly specific in vivo probe for PIP2 in cells.
HeLa cells were transiently transfected with an expression plasmid encoding a fusion protein of GFP and the PH domain of PLCdelta1.
HeLa cells were transiently transfected with an expression plasmid encoding a fusion protein of GFP and the pleckstrin homology domain of PLCdelta1. GFP PLC delta1 is a highly specific in vivo probe for PtdIns(4,5)P2 in cells. Results are in FIG. 10.

PIP 5-K [4] = molecular target: T1, PIP 5-K; assay: Localisation of GFP PIP 5-K in HeLa cells by confocal laser scanning microscopy; format: cell-based; conditions: 600 microMolar, away from the plasma membrane
Description: Panel A: HeLa cell were transiently transfected with expression plasmids encoding for a GFP fusion protein of PIP 5-K. In healthy cells GFP PIP 5-K is located at the plasma membrane. Cells were then treated with 600 microMolar H2O2 and the localisation of the GFP PIP 5-K was monitored on line using confocal laser scanning microscopy.
HeLa cells were transiently transfected with expression plasmids encoding for a GFP fusion protein of PIP 5-K. In healthy cells GFP PIP 5-K is located at the plasma membrane. Cells were then treated with 600 microMolar H2O2 and the localisation of the GFP PIP 5-K was monitored on line using confocal laser scanning microscopy. […] H2O2 regulates the localisation of the enzyme in vivo. (FIG. 12, panel A)

T1 sequence (P70181 whole entry): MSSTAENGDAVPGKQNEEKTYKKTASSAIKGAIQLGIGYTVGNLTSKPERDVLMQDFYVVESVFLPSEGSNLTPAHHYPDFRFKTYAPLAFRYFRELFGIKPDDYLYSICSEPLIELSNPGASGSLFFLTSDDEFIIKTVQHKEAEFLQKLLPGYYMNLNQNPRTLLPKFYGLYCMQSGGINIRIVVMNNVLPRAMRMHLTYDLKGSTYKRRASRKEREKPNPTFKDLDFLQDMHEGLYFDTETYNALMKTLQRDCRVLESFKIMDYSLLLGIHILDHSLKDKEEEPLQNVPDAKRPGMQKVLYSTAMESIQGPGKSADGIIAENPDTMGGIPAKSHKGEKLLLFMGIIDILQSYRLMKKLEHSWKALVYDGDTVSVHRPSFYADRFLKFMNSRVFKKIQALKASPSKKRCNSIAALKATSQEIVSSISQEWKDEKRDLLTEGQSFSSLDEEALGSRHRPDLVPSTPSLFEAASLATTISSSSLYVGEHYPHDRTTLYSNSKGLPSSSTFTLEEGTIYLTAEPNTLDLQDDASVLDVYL

- activity of recombinant wild type PIP 5-K after treatment (PIP 5-K [1]): sensitive
- localisation of GFP PIP 5-K (PIP 5-K [4]): induces translocation
Compound: OO [H2O2]
- level of nuclear PtdIns4P [2]: increased
- level of nuclear PtdIns5P [2]: increased
- PtdIns(4,5)P2 levels (GFP-PH probe at plasma membrane) [3]: sustained depletion
